According to PubChem BioAssay (NCI):
In brackets after ≈: the same amount, converted by molar mass.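 Exposure lasted 48 hours, with cells grown in 96-well plates and compounds tested at five concentrations. Here, GI50 denotes the concentration required for 50% inhibition of growth. TGI marks complete inhibition of growth.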

Columns and labels:
Assay in all cases: inhibition of tumour cell growth, NCI panel, 48 h
[1] = test system: CCRF-CEM leukemia
[2] = test system: DU-145 prostate
[3] = test system: M14 melanoma
[4] = test system: OVCAR-5 ovarian
[5] = test system: SK-MEL-28 melanoma
[6] = test system: HS 578T breast
[7] = test system: MCF7 breast
[8] = test system: RPMI-8226 leukemia
[9] = test system: MOLT-4 leukemia
[10] = test system: HOP-92 NSCLC

Structure (SMILES)	GI50 [1] [µg/mL]	TGI [1]	GI50 [2] [µg/mL]	TGI [2]	GI50 [3] [µg/mL]	TGI [3]	GI50 [4] [µg/mL]	TGI [4]	GI50 [5] [µg/mL]	TGI [5]	GI50 [6] [µg/mL]	TGI [6]	GI50 [7] [µg/mL]	TGI [7]	GI50 [8] [µg/mL]	TGI [8]	GI50 [9] [µg/mL]	TGI [9]	TGI [10] [µM]
O=C1NN(C2=NNC3(C(=O)N2)c2ccccc2-c2ccccc23)C(c2ccccc2)=N/C1=C/c1ccc(Cl)cc1	52.6 (≈ 96.5 µM)	> 150 µg/mL	89.1 (≈ 164 µM)	> 150 µg/mL	59.8 (≈ 110 µM)	> 150 µg/mL	132 (≈ 242 µM)	> 150 µg/mL	63 (≈ 116 µM)	> 150 µg/mL	47.7 (≈ 87.6 µM)	> 150 µg/mL	35.8 (≈ 65.7 µM)	144 µg/mL	63.6 (≈ 117 µM)	> 150 µg/mL	42.7 (≈ 78.4 µM)	> 150 µg/mL	
O=c1oc2ccccc2c(O)c1Cc1ccc(Cc2c(O)c3ccccc3oc2=O)cc1		> 100 µM		> 100 µM		> 100 µM		> 100 µM		> 100 µM		> 100 µM		> 100 µM				> 100 µM	> 100
CCOC(=O)c1csc(NC(=O)C(C)N2CCCC2)n1 (stereo not given)		> 100 µM		> 100 µM		> 100 µM		> 100 µM		> 100 µM				> 100 µM		> 100 µM			> 100
